From PubChem BioAssay (NCI)
“And” between values parts separate entries of the source, which are not always exact repeats. Identical values can stand only once.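 All cell lines were grown in 96-well plates and treated with compound for 48 hours. GI50 marks 50% less growth. Definition used: TGI = concentration required for complete inhibition of growth.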

Assays:
Test in all cases: inhibition of tumour cell growth, NCI panel, 48 h
HS 578T breast = tested on: HS 578T breast
LOX IMVI melanoma = tested on: LOX IMVI melanoma
NCI-H522 lung = tested on: NCI-H522 lung
U251 CNS = tested on: U251 CNS
NCI-H460 lung = tested on: NCI-H460 lung
786-0 renal = tested on: 786-0 renal
HOP-62 NSCLC = tested on: HOP-62 NSCLC
SK-MEL-28 melanoma = tested on: SK-MEL-28 melanoma
HCT-116 colon = tested on: HCT-116 colon
M14 melanoma = tested on: M14 melanoma

SMILES	GI50 (HS 578T breast)	TGI (HS 578T breast) [µM]	GI50 (LOX IMVI melanoma)	TGI (LOX IMVI melanoma) [µM]	GI50 (NCI-H522 lung)	TGI (NCI-H522 lung)	GI50 (U251 CNS)	TGI (U251 CNS) [µM]	GI50 (NCI-H460 lung)	TGI (NCI-H460 lung) [µM]	GI50 (786-0 renal)	TGI (786-0 renal) [µM]	GI50 (HOP-62 NSCLC)	TGI (HOP-62 NSCLC) [µM]	GI50 (SK-MEL-28 melanoma) [µM]	TGI (SK-MEL-28 melanoma) [µM]	GI50 (HCT-116 colon)	TGI (HCT-116 colon) [µM]	TGI (M14 melanoma) [µM]	GI50 (M14 melanoma) [µM]
CCOC(=O)Cc1csc(Nc2nc(O)c(C3=c4ccccc4=NC3=O)s2)n1	47 µM	> 100	22.1 µM	54.2	27.2 µM	97.6 µM	19.2 µM	39.6	21.6 µM	65.2	21.7 µM	43.2	20.6 µM	39.5	45.7	> 100	13.6 µM	26.5		
CCCCN(CCCC)C(=O)C(=O)C(C(=O)C(=O)OC)c1nc2ccccc2o1 (centres undefined)				> 100		> 100 µM		> 100		> 100		> 100		> 100		> 100		> 100	> 100	
Cn1cnc([N+](=O)[O-])c1Sc1nccn1-c1ccccc1				46.9		24.5 µM		> 100		> 100		> 100		> 100		> 100		> 100	> 100	
COC(=O)c1oc([N+](=O)[O-])c(-c2ccccc2)c1-c1ccccc1				> 100		> 100 µM		> 100		> 100		> 100		> 100		> 100		> 100	> 100	
Cc1cc2c(=O)cc(-c3ccc(Cl)c(Cl)c3)oc2c(C(=O)O)c1C				> 100		> 100 µM		> 100		> 100		> 100				> 100		> 100	> 100	
Cc1cc2c(cc1C)[n+](=O)c(C(=O)CC(=O)C(=O)Nc1ccccc1C)c(C)n2[O-]				> 100		> 100 µM		> 100		> 100		> 100		> 100		> 100		> 100	> 100	
COC(=O)CC12CC(NC(=O)c3csc([C@@H](C[C@H](C(C)C)N(C)C(=O)[C@@H](NC(=O)[C@H]4CCCCN4C)C(C)C)OC(C)=O)n3)(C1)C2	0.00396 µM and 0.00902 µM	> 33.3	0.00446 µM and 0.0121 µM	> 33.3	0.00107 µM and 0.00333 µM	0.00593 µM and 0.0149 µM	0.0036 µM and 0.013 µM	> 33.3	0.00322 µM and 0.0116 µM	> 33.3	0.00606 µM and 0.014 µM	> 33.3	0.00498 µM and 0.00838 µM	> 33.3			0.00337 µM and 0.00778 µM	> 33.3		0.00355
O=C([CH-]C(=O)c1ccccc1)c1ccccc1.O=C([CH-]C(=O)c1ccccc1)c1ccccc1.[CH2-]CCC.[CH2-]CCC.[Sn+4]			0.405 µM	1.59	0.0293 µM	0.13 µM	0.45 µM	1.56	1.76 µM	4.14	0.313 µM	1.35	1.95 µM	3.41			0.917 µM	2.28	1.59	0.394
CN(CC(=O)O)S(=O)(=O)c1ccc(Cl)cc1				> 100		> 100 µM		> 100		> 100		> 100				> 100			> 100	
c1ccc2c(CNCCCN3CCN(CCCNCc4cccc5ccccc45)CC3)cccc2c1				2.67		2.99 µM		3.16		2.81		4.18		34.4		3.06		2.83	2.42	
N#CCC(=O)N/N=C(/C(=O)Nc1ccccc1)C1C(=O)N(c2ccccc2)N=C1N (centres undefined)				> 100		> 100 µM		> 100		> 100		> 100		> 100		> 100		> 100	> 100	
Cc1cc2c(=O)cc(-c3ccc(O)cc3)oc2c(C(=O)O)c1C				> 100		> 100 µM		> 100		> 100		> 100		> 100		> 100		> 100	> 100	
Nc1cc2c(c3ccccc13)C(CCl)CN2C(=O)c1cc2cc(NC(=O)c3cc4ccccc4o3)ccc2[nH]1 (centres undefined)			> 0.11 µM	256	> 0.11 µM	0.00332 µM and < 0.11 µM			0.000351 µM		> 0.11 µM	> 1100		< 0.11			> 0.11 µM	> 1100		
CC1=CC=C2C(C)(C)CC[C@@H]3OC(=O)[C@H]1[C@]23C				> 100		> 100 µM		> 100				> 100		> 100		> 100		> 100	> 100	
Cc1cc2c(=O)cc(-c3ccc(C(=O)O)cc3)oc2c(C(N)=O)c1C				> 100		> 100 µM		> 100		> 100		> 100		> 100		> 100		> 100	> 100	
Cc1cc2c(=O)cc(-c3ccc(Cl)cc3Cl)oc2c(C(=O)O)c1C				> 100		> 100 µM		> 100		> 100		> 100				> 100		> 100	> 100	
COc1ncnn2ccc(-c3cnc4nc(C)n(Cc5nnc(C(C)F)o5)c4c3)c12 (centres undefined)	0.265 µM	7.21	0.144 µM	0.619	0.0859 µM	0.363 µM	0.249 µM	> 100	0.242 µM	> 100	0.273 µM	> 100			0.298	13.8	0.041 µM	> 100	> 40.5	0.24
CCC(CO)COC(=O)/C=C/C(=O)OCC(CC)CO (centres undefined)				> 100		> 100 µM		> 100		> 100		> 100		> 100		> 100		> 100	> 100	
O=[N+]([O-])c1cccc(C=NC23CC4CC(CC(C4)C2)C3)c1				> 100		> 100 µM		> 100		> 100		> 100		> 100		> 100		> 100	> 100	
CCOc1ccc(N=C2NC(=O)C(CC(=O)Nc3ccc(Cl)cc3Cl)S2)cc1 (centres undefined)				> 100				> 100		> 100		> 100		> 100		> 100			> 100	
CN1C(=O)CNS1(=O)=O				> 100				> 100		> 100		> 100		> 100		> 100		> 100	> 100	
CNC(=O)N(CCCC(NC(C)=O)C(=O)NCc1ccccc1)Cc1ccccc1 (centres undefined)				> 100		> 100 µM		> 100		> 100		> 100		> 100		> 100		> 100	> 100	
